{"source": "patent US20260265239A1", "about": "“CRYSTAL FORM OF 2,6-PIPERIDINEDIONE COMPOUND, AND PREPARATION METHOD THEREFOR AND USE THEREOF” (ZHANGZHOU PIEN TZE HUANG PHARMACEUTICAL CO., LTD., priority 2023, published 2026)", "key": {"[1]": {"experiment": "Pharmacokinetic evaluation in mice", "assay_type": "in vivo, C57BL/6 or C57 male mice", "description": "C57BL/6 or C57 male mice were selected as the test animals for this study. The LC/MS/MS method was employed to quantitatively determine the plasma drug concentrations at various time points after intravenous injection or intragastric administration of the test compound, aiming to evaluate the pharmacokinetic characteristics of the compound of the present disclosure in mice.\nC57BL/6 or C57 mice (male, 20 to 30 g, 7 to 10 weeks old, Beijing Vital River).\nA clear solution of the test compound was injected intravenously into the tail vein of C57BL/6 mice (fasted overnight) (vehicle: 10% DMSO/10% solutol/80% H2O), or administered intragastrically to C57 mice (fed). […] The mixture was thoroughly vortexed and mixed, and centrifuged at 6000 g for 3 minutes at 2 to 8° C. […] The mixture was thoroughly vortexed and mixed, and centrifuged at 6000 g for 3 minutes at 2 to 8° C. Plasma drug concentrations were determined by the LC-MS/MS method, and relevant pharmacokinetic parameters were calculated using Phoenix WinNonlin 8.2.0 pharmacokinetic software with non-compartmental model linear-log trapezoidal method."}, "[2]": {"test_system": "SU-DHL-2", "experiment": "Anti-proliferative effect in lymphoma cell line SU-DHL-2 (CellTiter-Glo)", "assay_type": "cell-based, human", "description": "Objective: This experiment was conducted to detect the inhibitory effect of the compound of formula (I) on cell proliferation in the lymphoma cell line SU-DHL-2.\nThe tumor cell lines were cultured under the above culture conditions in an incubator at 37° C. and 5% CO2. The cells were passaged periodically, and those in the logarithmic growth phase were harvested for seeding.\n• (1) The cells were stained with trypan blue, and the viable cells were counted. • (2) The cell concentration was adjusted to an appropriate concentration.\n• (3) 50 μL of cell suspension was added to each well of the culture plate as shown in the figure above. • (4) The culture plate was incubated overnight in an incubator at 37° C., 5% CO2, and 100% relative humidity.\nThe drug was administered with an Echo655 instrument. A dosing volume of 50 nL was used, with a final DMSO concentration of 0.1%. The culture plate was centrifuged at 1000 rpm for 1 min and incubated at 37° C., 5% CO2, and 100% relative humidity for 4 days. […]"}, "[3]": {"conditions": "Intragastric administration (10 mg/kg) (fed)"}}, "note": "Counter-ions that a name gives are not always drawn."}
{"smiles": "O=C1CCC(c2noc3ccc4c(NC(=O)CN5CCN(C[C@H]6CC[C@H](n7cc(NC(=O)c8coc(-c9ccnc(NCC%10CC%10)c9)n8)c(C(F)F)n7)CC6)CC5)cccc4c23)C(=O)N1", "note": "(some centres unmarked) [Hydrochloride of Compound of Formula (I)]", "values": [{"measurement": "Area Under the Drug-Time Curve (0-inf)", "setting": "[1]; [3]", "result": 4.47, "unit": "µM·h"}, {"measurement": "Peak Concentration", "setting": "[1]; [3]", "result": 0.54, "unit": "µM"}, {"measurement": "Time to Peak Concentration", "setting": "[1]; [3]", "result": 1.00, "unit": "h"}, {"measurement": "Area Under the Drug-Time Curve (0-inf)", "setting": "[1]; Intravenous Injection (2 mg/kg) (fasted)", "result": 5.40, "unit": "µM·h"}, {"measurement": "inhibitory effect on cell proliferation (conclusion)", "setting": "[2]", "result": "excellent inhibitory effect"}]}
